Usually IC50 stands for the concentration needed to halve the response being measured.

The structures appear in SMILES notation. Like-named read-outs stand apart in the source and are kept apart here.

In patent publication US5952368A, “5-aroylpyrrol-2-ylmethylarene derivatives” (Syntex (U.S.A.) Inc., priority 1997, dated 1999) one finds IC50 data, which are given here for 26 compounds.

One assay deals with T1, COX II (Homo sapiens, UniProt P35354).
T1 construct: made in house; baculovirus-infected insect cells by own knowledge of the cited Barnett et al. 1994
T1 sequence (P35354 18-604): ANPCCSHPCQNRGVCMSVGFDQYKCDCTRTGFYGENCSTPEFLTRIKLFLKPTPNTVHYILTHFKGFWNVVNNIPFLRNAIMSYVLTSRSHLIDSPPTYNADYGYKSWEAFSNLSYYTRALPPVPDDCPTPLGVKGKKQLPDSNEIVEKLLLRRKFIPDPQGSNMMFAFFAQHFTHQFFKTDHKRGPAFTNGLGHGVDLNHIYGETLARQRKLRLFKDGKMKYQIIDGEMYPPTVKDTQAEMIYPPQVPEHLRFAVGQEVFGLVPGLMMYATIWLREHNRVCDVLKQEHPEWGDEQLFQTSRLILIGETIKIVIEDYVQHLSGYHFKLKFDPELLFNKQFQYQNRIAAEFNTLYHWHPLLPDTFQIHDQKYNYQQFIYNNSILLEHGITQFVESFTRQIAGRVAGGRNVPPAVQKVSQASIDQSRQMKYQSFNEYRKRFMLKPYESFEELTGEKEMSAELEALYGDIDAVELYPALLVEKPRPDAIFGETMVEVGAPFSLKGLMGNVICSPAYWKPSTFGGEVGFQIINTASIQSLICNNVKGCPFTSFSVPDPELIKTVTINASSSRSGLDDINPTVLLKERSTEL
Briefly: Inhibition of COX II in vitro (radiometric assay, 14C arachidonic acid, partially purified enzyme). The format is biochemical. On the procedure:
(§1) The COX I and COX II inhibitory activity of compounds of this invention in vitro was determined using partially purified COX I and COX II enzymes, prepared as described in J. Barnett et al., Biochim. Biophys. Acta, 1209:130--139 (1994).
(§2) COX I and COX II samples were diluted with Tris-HCl buffer (50 mM Tris-HCl pH 7.9) containing 2 mM EDTA and 10% glycerol and reconstituted by incubating first with 2 mM phenol for 5 minutes and then with 1 micromolar hematin for an additional 5 minutes. 125 μl of the reconstituted COX I or COX II enzyme were preincubated for 10 minutes at room temperature in a shaking water bath with the compounds of the invention dissolved in 2-15 μl of DMSO or the carrier vehicles (control samples). The enzyme reaction was initiated by adding 25 μl of 1-[14C] arachidonic acid (80,000-100,000 cpm/tube; 20 micromolar final concentration) and the reaction was allowed to continue for an additional 45 seconds. The reaction was terminated by adding 100 μl of 2N HCl and 750 μl water. An aliquot (950 μl) of the reaction mixture was loaded onto a 1 ml C18 Sep-Pak column (J. T. Baker, Phillipsburg, N.J.) which had been previously washed with 2-3 ml methanol and equilibrated with 5-6 ml distilled water. Oxygenated products were quantitatively eluted with 3 ml of acetonitrile/water/acetic acid (50:50:0.1, v/v) and the radioactivity in the eluate determined in a scintillation counter.

The target of another assay is T2, COX I (Homo sapiens, UniProt P23219).
T2 construct: made in house; baculovirus-infected insect cells by own knowledge of the cited Barnett et al. 1994
Briefly: Inhibition of COX I in vitro (radiometric assay, 14C arachidonic acid, partially purified enzyme). The format is biochemical. On the procedure:
as §1, §2

[1] abbreviates: partially purified COX II, 20 micromolar arachidonic acid, 10 min preincubation, room temperature, read-out: COX II IC50.
[2] abbreviates: partially purified COX I, 20 micromolar arachidonic acid, 10 min preincubation, room temperature, read-out: COX I IC50.

T2 sequence (P23219 24-599): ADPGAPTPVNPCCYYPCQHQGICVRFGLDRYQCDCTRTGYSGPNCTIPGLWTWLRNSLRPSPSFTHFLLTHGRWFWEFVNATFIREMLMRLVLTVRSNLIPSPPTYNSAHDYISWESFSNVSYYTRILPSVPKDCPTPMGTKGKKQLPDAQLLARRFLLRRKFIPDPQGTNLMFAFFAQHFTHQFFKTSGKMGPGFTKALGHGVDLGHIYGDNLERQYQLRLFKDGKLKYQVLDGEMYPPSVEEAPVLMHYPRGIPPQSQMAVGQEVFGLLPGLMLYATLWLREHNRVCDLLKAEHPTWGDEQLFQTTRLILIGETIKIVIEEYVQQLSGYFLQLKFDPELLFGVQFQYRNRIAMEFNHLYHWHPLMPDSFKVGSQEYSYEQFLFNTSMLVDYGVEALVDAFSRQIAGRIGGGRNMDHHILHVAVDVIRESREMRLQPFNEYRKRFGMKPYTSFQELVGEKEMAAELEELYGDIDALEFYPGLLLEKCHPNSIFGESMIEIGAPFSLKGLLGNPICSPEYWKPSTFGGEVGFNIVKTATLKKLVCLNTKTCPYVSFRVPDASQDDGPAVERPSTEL

On to `CNS(=O)(=O)Nc1ccc(Cc2ccc(C(=O)c3ccc(C)cc3C)n2C)c(F)c1` [compound 172, 1-{3-Fluoro-4-[5-(2,4-dimethylbenzoyl)-1-methyl-1H-pyrrol-2-ylmethyl]phenyl}-3-methylsulfamide], for which the IC50 on COX II (setting [1]) is 90 nM; on COX I (setting [2]), 43000 nM.
In the same order, the values of `Cc1cc(Cc2ccc(NS(N)(=O)=O)cc2)n(C)c1C(=O)c1ccccc1` [compound 177, 1-{4-[5-benzoyl-1,4-dimethyl-1H-pyrrol-2-ylmethyl]phenyl}sulfamide] are 300 nM and 790 nM.
As to `COc1ccc(C(=O)c2ccc(Cc3ccc(NS(N)(=O)=O)cc3F)n2C)cc1` [compound 196, 1-{3-Fluoro-4-[5-(4-Methoxybenzoyl)-1-methyl-1H-pyrrol-2-ylmethyl]phenyl}sulfamide], the IC50 on COX II (setting [1]) was determined as 40 nM; on COX I (setting [2]) it was 5000 nM.
For `COc1ccc(C(=O)c2c(C)cc(Cc3ccc(NS(N)(=O)=O)cc3F)n2C)cc1` [compound 197, 1-{3-Fluoro-4-[5-(4-Methoxybenzoyl)-1,4-dimethyl-1H-pyrrol-2-ylmethyl]phenyl}-sulfamide] the same measures were 70 nM and less than 100 nM.
In the same order, the values of `COc1ccc(C(=O)c2ccc(Cc3ccc(NS(N)(=O)=O)cc3C#N)n2C)cc1` [compound 202, 1-{3-Cyano-4-[5-(4-methoxybenzoyl)-1-methyl-1H-pyrrol-2-ylmethyl]phenyl}-sulfamide] are 50 nM and 3200 nM.
For `CNS(=O)(=O)Nc1ccc(Cc2cc(C)c(C(=O)c3ccc(F)cc3)n2C)c(F)c1` [compound 206, 1-{3-Fluoro-4-[5-(4-fluorobenzoyl)-1,4-dimethyl-1H-pyrrol-2-ylmethyl]phenyl}-3-methylsulfamide] the same measures were 240 nM and 460 nM.
As for `NS(=O)(=O)Nc1ccc(C2CCn3c(C(=O)c4ccccc4)ccc32)c(Cl)c1` (stereo not shown) [compound 222, 1-{3-Chloro-4-[5-benzoyl-1,2-dihydro-3H-pyrrolizin-1-yl]phenyl}sulfamide], the IC50 was 74 nM at COX II (setting [1]) and 460 nM on COX I (setting [2]).
Take `COc1ccc(C(=O)c2ccc3n2CCC3c2ccc(NS(N)(=O)=O)cc2Cl)cc1` (stereo not shown) [compound 223, 1-{3-Chloro-4-[5-(4-methoxybenzoyl)-1,2-dihydro-3H-pyrrolizin-1-yl]phenyl}sulfamide]: the half-inhibitory concentration (IC50) at COX II (setting [1]) came to 29 nM; on COX I (setting [2]), 64 nM.
In the same order, the values of `Cc1cc(Cc2ccc(NC(=O)N(C)C)cc2)n(C)c1C(=O)c1ccc(Cl)cc1` [compound 226, 1-{1,4-[5-(4-Chlorobenzoyl)-1,4-dimethyl-1H-pyrrol-2-ylmethyl]phenyl}-3,3-dimethylurea] are 2100 nM and 100000 nM.
`Cc1cc(Cc2ccc(NC(=O)Nc3ccccc3)cc2)n(C)c1C(=O)c1ccc(Cl)cc1` [compound 227, 1-{1,4-[5-(4-Chlorobenzoyl)-1,4-dimethyl-1H-pyrrol-2-ylmethyl]phenyl}-3-phenylurea]: the IC50 on COX II (setting [1]) was 100 nM; on COX I (setting [2]) it was 2500 nM.
As for `Cc1cc(Cc2ccc(NC(=O)Nc3cccc(Cl)c3)cc2)n(C)c1C(=O)c1ccc(Cl)cc1` [compound 228, 1-{4-[5-(4-Chlorobenzoyl)-1,4-dimethyl-1H-pyrrol-2-ylmethyl]phenyl}-3-(3-chlorophenyl)-urea], the results for the IC50 on COX II (setting [1]) and on COX I (setting [2]) were 100 nM and 8500 nM, respectively.
In the same order, the values of `CCNC(=S)Nc1ccc(Cc2cc(C)c(C(=O)c3ccc(Cl)cc3)n2C)cc1` [compound 235] are 170 nM and 8200 nM.
For the compound `Cc1cc(Cc2ccc(NC(=O)CF)cc2)n(C)c1C(=O)c1ccc(Cl)cc1` [compound 243, N-{4-[5-(4-Chlorobenzoyl)-1,4-dimethyl-1H-pyrrol-2-ylmethyl]phenyl}fluoroacetamide], the figures for the concentration for half-maximal inhibition (IC50) on COX II and against COX I were 8900 nM and 100000 nM, respectively.
As for `Cc1cc(Cc2ccc(N)cc2)n(C)c1C(=O)c1ccc(Cl)cc1` [compound 250, 4-[5-(4-Chlorobenzoyl)-1,4-dimethyl-1H-pyrrol-2-ylmethyl]aniline], the values for the IC50 on COX II (setting [1]) and on COX I (setting [2]) were 27400 nM and 34000 nM, respectively.
`CSc1ccc(C(=O)c2c(C)cc(Cc3ccc(N)cc3F)n2C)cc1` [compound 251, 3-Fluoro-4-[5-(4-methylthiobenzoyl)-1,4-dimethyl-1H-pyrrol-2-ylmethyl]aniline]: the IC50 on COX II (setting [1]) stood at 640 nM; on COX I (setting [2]), 310000 nM.
For `Cc1cc(Cc2ccc(NS(=O)(=O)CCO)cn2)n(C)c1C(=O)c1ccc(Cl)cc1` [compound 267, N-{2-[5-(4-Chlorobenzoyl)-1,4-dimethyl-1H-pyrrol-2-ylmethyl]pyridin-5-yl}-2-(hydroxy)ethanesulfonamide] the same measures were 700 nM and 210000 nM.
In the same order, the values of `Cc1ccc(C(=O)c2ccc(Cc3ncc(NS(C)(=O)=O)cc3Cl)n2C)cc1` [compound 276, N-{3-Chloro-2-[5-(4-methylbenzoyl)-1-methyl-1H-pyrrol-2-ylmethyl]pyridin-5-yl}-methanesulfonamide] are 500 nM and 60000 nM.
For `COc1ccc(C(=O)c2c(C)cc(Cc3ccc(NS(C)(=O)=O)cn3)n2C)cc1` [compound 289, N-{2-[5-(4-Methoxybenzoyl)-1,4-dimethyl-1H-pyrrol-2-ylmethyl]pyridin-5-yl}-methanesulfonamide] the same measures were 1500 nM and 10200 nM.
As to `Cc1cc(Cc2ccc(NS(=O)(=O)N(C)C)cn2)n(C)c1C(=O)c1ccccc1` [compound 294, 1-{2-[5-Benzoyl-1,4-dimethyl-1H-pyrrol-2-ylmethyl]pyridin-5-yl}-3,3-dimethylsulfamide], the half-maximal inhibitory concentration (IC50) came out at 2600 nM on COX II (setting [1]) and 9100 nM at COX I (setting [2]).
Consider `Cc1cc(Cc2ccc(NS(N)(=O)=O)cn2)n(C)c1C(=O)c1ccccc1` [compound 295, 1-{2-[5-benzoyl-1,4-dimethyl-1H-pyrrol-2-ylmethyl]pyridin-5-yl}sulfamide], for which the IC50 on COX II (setting [1]) worked out at 100 nM; at COX I (setting [2]) it was 600 nM.
Take `CSc1ccc(C(=O)c2c(C)cc(Cc3ccc(NS(=O)(=O)N(C)C)cn3)n2C)cc1` [compound 296, 1-{2-[5-(4-Methylthiobenzoyl)-1,4-dimethyl-1H-pyrrol-2-ylmethyl]pyridin-5-yl}-3,3-di-methylsulfamide]: the concentration for half-maximal inhibition (IC50) came to 400 nM on COX II (setting [1]) and 210 nM at COX I (setting [2]).
For `COc1ccc(C(=O)c2ccc(Cc3ccc(NS(N)(=O)=O)cn3)n2C)cc1` [compound 306, 1-{2-[5-(4-Methoxybenzoyl)-1-methyl-1H-pyrrol-2-ylmethyl]pyridin-5-yl}sulfamide] the same measures were 640 nM and 113000 nM.
With `Cc1cc(Cc2ccc(NC(=O)N(C)C)cn2)n(C)c1C(=O)c1ccc(Cl)cc1` [compound 308, 1-{2-[5-(4-Chlorobenzoyl)-1,4-dimethyl-1H-pyrrol-2-ylmethyl]pyridin-5-yl}-3,3-di-methylurea], the IC50 on COX II (setting [1]) was 8750 nM; on COX I (setting [2]) it was 650000 nM.
In the same order, the values of `Cc1cc(Cc2ccc(NC(=O)NCCCl)cn2)n(C)c1C(=O)c1ccc(Cl)cc1` [compound 310, 1-{2-[5-(4-Chlorobenzoyl)-1,4-dimethyl-1H-pyrrol-2-ylmethyl]pyridin-5-yl}-3-(2-chloro-ethyl)urea] are 9200 nM and 142000 nM.
In the same order, the values of `CCNC(=S)Nc1ccc(Cc2cc(C)c(C(=O)c3ccc(Cl)cc3)n2C)nc1` [compound 314, 1-{2-[5-(4-Chlorobenzoyl)-1,4-dimethyl-1H-pyrrol-2-ylmethyl]pyridin-5-yl}-3-ethyl-2-thiourea] are 560 nM and 65000 nM.
In the same order, the values of `Cc1cc(Cc2ccc(NC(=S)Nc3ccccc3)cn2)n(C)c1C(=O)c1ccc(Cl)cc1` [compound 316, 1-{2-[5-(4-Chlorobenzoyl)-1,4-dimethyl-1H-pyrrol-2-ylmethyl]pyridin-5-yl}-3-phenyl-2-thiourea] are 200 nM and 360000 nM.
